For orientation: MIC means the lowest concentration that inhibits growth of the organism. A low value points to greater potency.

Data set [1] is described as follows: Tissue distribution of cephapirin activity after intravenous administration (agar well diffusion bioassay). The class given is in vivo, mice. The following applies: 200 mg/kg intravenous; for concentration at 1 h / concentration at 3 h / concentration at 7 h / concentration at 10 h / concentration at 24 h: mouse. As for the experimental part: (§1) The antibacterial activity was measured by an agar well diffusion bioassay, though other assays for antibacterial activity or chemical, or immunological assays for the drug substance are known to those skilled in the art. Briefly, the agar well diffusion bioassay used here were performed by cutting wells into an agar such as Trypticaso Soy Agar (Difco., Detroit, MI) that were previously seeded with a test bacteria such as Bacillus subtilis (ATCC #6633). The wells were filled with a small amount of test material here about 50ul of the test sample, and the agar plates were incubated. Bacillus subtilis incubation was for about 16-24 hours at about 35°C. Growth of a bacterial "lawn" around the well was inhibited by antibiotic present in the agar as diffused from the test sample. The diameters of the zones of inhibited growth around the wells were proportional to the concentration of antibiotic in the test sample and were quantitated by comparison with known, standard antibiotic solutions.
(In general: A growth-free zone around the sample is the usual read-out of agar diffusion tests.)

A short description of data set [2]: Serum levels of cephapirin activity after subcutaneous or intravenous administration. The class given is in vivo, mice. The protocol: as §1
Cephapirin activity in the serum of mice was determined at intervals after subcutaneous or intravenous administration of free or complexed drug. […] Maximal activity was found in the serum of mice given free cephapirin (by either route) at the earliest time points examined (one half to one hour post-injection). […] With a 200 mg/kg dose, serum levels were 10 ug/ml or greater for 24 hours after injection. […]

The test system of data set [3] is S. aureus (ATCC #29740). The experiment in a line: In vitro minimal inhibitory concentration by micro-titer dilution method. The following applies: Staphylococcus aureus, ATCC29740. The class given is cell-based.
Data set [4] has as its system S. aureus (ATCC #29740). The experiment in a line: Staphylococcal Abscess Model. The class given is in vivo, Mice (out-bred CD-1 males). Conditions: single dose (200 mg/kg). The protocol: Staphylococcal Abscess Model. S. aureus (ATCC #29740) was grown overnight at 30°C in trypticase soy broth. Aliquots of this suspension were frozen at -70°C. […] For use, cultures were thawed and diluted with saline to contain the desired number of colony forming units (CFU) per ml. Mice (out-bred CD-1 males) were injected subcutaneously with 0.1 ml of S. aureus suspension in the abdominal area. Treatment with free or encapsulated drug was given before or after infection. At four days after infection, mice were killed by cervical dislocation, the abscesses were carefully dissected out and their diameters measured.
To determine the effect of treatment on abscess development, mice were given a single intravenous or subcutaneous injection of free or complexed cephapirin at various times before or after injection.

The subject of a further data set is S. aureus. Briefly: Staphylococcal Septicemia Model. Format: in vivo, Mice. The following applies: for % Survival at 72 hours: 10 mice. As for the experimental part: Staphylococcal Septicemia Model. The S. aureus inoculum was prepared as for the abscess model. Mice were inoculated intraperitoneally with 2 x 10⁸ CFU in 5% hog/mucin. Treatment was given before or after infection. […]
The effect of free and CHStris cephalosporin:lipid complex cephapirin was compared in an acute staphylococcus septicemia model.

Data set [5] relates to S. typhimurium (ATCC #14028). The experiment in a line: Salmonella typhimurium Septicemia Model. Format: in vivo, Mice. Conditions: 700 CFU intravenously; treatment on days 2 and 4 post-inoculation; groups of 10. As for the experimental part: Salmonella typhimurium Septicemia Model: S. typhimurium (ATCC #14028) was grown in trypticase soy broth at 35°C overnight. Aliquots of this suspension were frozen and maintained at -70°C. For use, cultures were thawed and diluted to contain 700 CFU/ml in 0.9% saline. Mice were inoculated intravenously (0.1 ml) via the lateral tail vein. Treatment was given at various times after infection. Mortality was monitored daily for two weeks.
Mice (in groups of 10) that were inoculated intravenously with 700 CFU of S. typhimurium and received no treatment died within 6-8 days after infection (Fig. 11). […] In this case, the cephalosporin:lipid complex preparation was not washed so that 30% of the administered dose was encapsulated.

A short description of another data set: in vivo. Conditions: mouse, iv, 924 mg/kg.
Data set [6] can be described thus: Serum levels of cefazolin after a single intravenous dose. Format: in vivo, mice. As for the experimental part:
as §1
Both cephapirin and cefazolin display prolonged activity in serum and activity at a higher level by the cephalosporin:lipid complex preparation as compared to the free drug. […] Extended prophylactic activity in the serum can also be achieved by subcutaneous administration of a cephalosporin:lipid complex antibiotic.
Intravenous injection of a single 100mg/kg dose of free cefazolin dosium in mice results in a mean serum concentration of 8 to 20ug/ml at one hour post dose (Fig. 9).

Data set [7] relates to many susceptible organisms. Conditions: for many susceptible organisms; cited from earlier work.

Description for in vivo: Contrast agents were tested in mice by injecting a single intravenous dose of free or complexed contrast agent (diatrizoate) via the tail vein. […] The specific activity of the doses were about 10000 c/mg I.

In the case of `CC(=O)OCC1=C(C(=O)O)N2C(=O)[C@@H](NC(=O)CSc3ccncc3)[C@H]2SC1` [Free Cephapirin, cephapirin sodium], the activity in tissues result in [1] (at 3 hours or later) is “No activity was detected”. The concentration at 1 h in [1] (KIDNEY, time 1 (hours after injection), mean of 3 to 5 mice ± S.E.M.) is 49000 ± 8000 ng/g; in data set [1] (LIVER, time 1, mean ± S.E.M.) it was 46000 ± 12000 ng/g; in [1] (SPLEEN, time 1, mean ± S.E.M.), below 500 ng/g. Moreover, the concentration at 3 h was below 500 ng/g in data set [1] (KIDNEY, mean ± S.E.M.); below 500 ng/g in data set [1] (LIVER, mean ± S.E.M.); below 500 ng/g in data set [1] (SPLEEN, mean ± S.E.M.). The concentration at 7 h in data set [1] (KIDNEY, mean ± S.E.M.) is below 500 ng/g; in data set [1] (LIVER, mean ± S.E.M.), below 500 ng/g; in [1] (SPLEEN, mean ± S.E.M.) it was below 500 ng/g. Also, the concentration at 10 h in [1] (KIDNEY, mean ± S.E.M.) is below 500 ng/g; in [1] (LIVER, mean ± S.E.M.) it was below 500 ng/g; in data set [1] (SPLEEN, mean ± S.E.M.), below 500 ng/g. Also, the concentration at 24 h in data set [1] (KIDNEY, mean ± S.E.M.) is below 500 ng/g; in [1] (LIVER, mean ± S.E.M.), below 500 ng/g; in data set [1] (SPLEEN, mean ± S.E.M.), below 500 ng/g. For the same compound, the “activity in the serum” value in data set [2] (at 3 hours or later) is “no activity was detectable”. For the same compound, in [2] (serum, both intravenous and sub-cutaneous administration, estimated), the “half-life of free drug” value is “approximately 20 minutes”. Moreover, the MIC in the data set with S. aureus (ATCC #29740) [3] fell in the range of 0.05 to 0.1 mg/L. Further, the “effect on abscess size” value in the data set with S. aureus (ATCC #29740) [4] (four hours before infection (complex: up to four hours before)) is listed as “no effect on abscess size”; in the data set on S. aureus (ATCC #29740) [4] (one hour after infection) it was “significantly reduces or prevents abscess development”; in the data set on S. aureus (ATCC #29740) [4] (one hour before infection) it was “reduced abscess size slightly”. The “% Survival at 72 hours” value in the data set with S. aureus (treated subcutaneously -1 hour, 50 mg/kg) is listed as 100%; in the data set on S. aureus (treated subcutaneously -1 hour, 100 mg/kg) it was 100%; with S. aureus (treated subcutaneously -1 hour, 200 mg/kg) it was 100%; in the data set with S. aureus (treated subcutaneously -4 hour, 50 mg/kg) it was 0%; in the data set on S. aureus (treated subcutaneously -4 hour, 100 mg/kg) it was 10%; with S. aureus (treated subcutaneously -4 hour, 200 mg/kg), 0%. In addition, the survival result is given as “survived until the end of the experiment” with S. aureus (treated subcutaneously at one hour before infection, end of the experiment (14 days)); “no effect on survival” in the data set with S. aureus (treatment at four hours before infection); “did not prolong survival” in data set [5].

In “in vivo”, `CC(=O)Nc1c(I)c(NC(C)=O)c(I)c(C(=O)O)c1I` [free diatrizoate, diatrizoate] displayed a concentration at 0.5 h of 2.8e+06 ng/g, a concentration at 1 h of 800000 ng/g and a concentration at 1.5 h of 300000 ng/g.

Regarding cefazolin sodium [free cefazolin], the mean serum concentration in data set [6] (mouse, in vivo, iv, 100 mg/kg, 1 h) was 8 to 20 µg/mL. In addition, the serum level result in data set [6] (mouse, in vivo, iv, 100 mg/kg, 2 h) was “approximately 2 ug/ml”. The serum level result in data set [6] (single 100mg/kg intravenous dose, at 3 hours after administration) is recorded as “below the level of detection”. For the same compound, in [7], the MICp entry is “about 0.5 ug (base weight)/ml (plasma or serum)” and the MICt result is “about 0.5 ug (base weight)/mg (spleen)”.

Values taken from patent publication EP0414806B1, “HIGH RATIO ACTIVE AGENT:LIPID COMPLEX” (THE LIPOSOME COMPANY, INC., priority 1988, dated 1989).
